Measured values published in patent publication US20080095856A1, “Encapsulated Nanoparticles for Drug Delivery” (priority 2006, published 2008).
Peptide text beside a SMILES is read from it. * marks the point of attachment. X1 = O=C(O)[C@H]1CSC(c2nc3ccc(N*)cc3s2)=N1

Columns and labels:
[1] = Biodistribution of SKLQ-aminoluciferin by BLI in L2G85 mice; type: in vivo
Source text: PSA is a chymotrypsin-like enzyme which specifically cleaves the C-terminus of glutamine (Q) in the peptide sequence, SKLQ-aminoluciferin. Prodrugs have been used to take advantage of this specificity of PSA. […] Where the peptides or prodrugs are encapsulated with polymer, the current shortcomings in delivery of tumor-specific peptides is overcome. The peptides or drugs can be encapsulated with a protective polymer coating, and the payload released in the vascularized tumor regions. This approach prevents non-specific distribution of the drug and ensures stability of the peptide/drug, and utilizes the active proteases that are specific to a disease state to activate a prodrug at the region of interest.
The strategies developed for these studies are utilized in the study of biodistribution of luciferin nanoparticles. The nanoparticles are also tested using a xenograft model of prostate cancer. Appropriate cell lines have been developed for conducting experiments to study human prostate cancer models in animals. […] Both LNCaP and PC3M cells have successfully been implanted into SCID mice, and their growth kinetics have been successfully quantified using BLI. Luciferase present in the cells is used as the read out for delivery of luciferin and can also be used as for assessing tumor burden when we transition to testing chemotherapeutic agents. […]

[2] = DPPH radical scavenger assay of antioxidative activity before and after SAS processing; type: biochemical; details: maximum UV absorbance before and after addition of quercetin
Source text: The antioxidative activity of quercetin has not been diminished by this supercritical fluid process for nanoparticle formation. A radical scavenger DPPH (2,2,-diphenyl-1-picrylhydrazyl) was used to measure the EC50 value of DPPH at maximum UV absorbance before and after addition of quercetin.
Quercetin. Quercetin has been encapsulated with PLA (MW 50,000 and 100,000) using the following process parameters: T=40 C, P=100 bar, CO2 flow rate 50 g/min, 5:100 quercetin:polymer ratio using methanol as the cosolvent. Results can be seen in FIGS. 4A-4C. […] A radical scavenger DPPH (2,2,-diphenyl-1-picrylhydrazyl) was used to measure the EC50 value of DPPH at maximum UV absorbance before and after addition of quercetin.

| Compound | distribution in the animal ([1]; L2G85 mice) | stability in the body ([1]; in vivo, acted upon by various enzymes) | EC50 value of DPPH, before vs after SAS processing [2] |
| --- | --- | --- | --- |
| CC(C)C[C@H](NC(=O)[C@H](CCCCN)NC(=O)[C@@H](N)CO)C(=O)N[C@@H](CCC(N)=O)C(=O)Nc1ccc2nc(C3=N[C@@H](C(=O)O)CS3)sc2c1 [SKLQ-aminoluciferin] (H-SKLQ-X1; N-terminus and C-terminus assumed) | distributed non-specifically throughout the animal | unstable in the body |  |
| O=c1c(O)c(-c2ccc(O)c(O)c2)oc2cc(O)cc(O)c12 [quercetin] |  |  | the same before and after SAS processing |
